Patent publication US9771370B2, “Compounds for the inhibition of indoleamine-2,3-dioxygenase” (Merck Patent GmbH, priority 2014, dated 2017)

target: Recombinant human IDO (Homo sapiens, UniProt P14902); test: Bridge-IT tryptophan fluorescence assay of human IDO-1 inhibition; format: biochemical; conditions: recombinant human IDO 7.5 nM, L-tryptophan
Method in brief: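 Two protocol variants: 100 μM L-Trp for 90 min at 37 °C, or 30 min enzyme–compound pre-incubation at 25 °C, then 50 μM L-Trp for 60 min at 25 °C. Reaction stopped in Bridge-IT solution A for 30 min at 30 °C.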

Recombinant human IDO, sequence (P14902 whole entry): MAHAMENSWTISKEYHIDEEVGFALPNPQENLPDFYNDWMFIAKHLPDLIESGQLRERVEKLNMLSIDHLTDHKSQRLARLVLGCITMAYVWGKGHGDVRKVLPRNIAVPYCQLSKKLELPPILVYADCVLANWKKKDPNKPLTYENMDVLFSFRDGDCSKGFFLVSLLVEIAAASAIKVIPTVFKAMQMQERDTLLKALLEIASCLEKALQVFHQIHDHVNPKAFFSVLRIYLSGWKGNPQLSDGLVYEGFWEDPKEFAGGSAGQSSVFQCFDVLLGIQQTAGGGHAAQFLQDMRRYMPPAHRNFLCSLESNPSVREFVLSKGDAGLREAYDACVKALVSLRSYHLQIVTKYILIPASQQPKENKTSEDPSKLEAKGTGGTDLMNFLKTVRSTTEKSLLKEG

SMILES | IC50 [nM]
OC(CC1CCCCC1)CC1c2ncccc2-c2cncn21 (single isomer, unassigned) [Compound 62d, 1-cyclohexyl-3-[4,6,9-triazatricyclo[6.4.0.0^[2,6]]dodeca-1(8),2,4,9,11-pentaen-7-yl]propan-2-ol] | > 1000
OC(CC1c2c(ccnc2F)-c2cncn21)C1CCCCC1 (centres unmarked) [Compound 2a, 1-Cyclohexyl-2-[9-fluoro-4,6,10-triazatricyclo[6.4.0.0^[2,6]]dodeca-1(8),2,4,9,11-pentaen-7-yl]ethan-1-ol] | > 1000
CC1(C)CCC(C(O)CC2c3nc(F)ccc3-c3cncn32)CC1 (single isomer, unassigned) [Compound 25d, 1-(4,4-dimethylcyclohexyl)-2-[10-fluoro-4,6,9-triazatricyclo[6.4.0.0^[2,6]]dodeca-1(8),2,4,9,11-pentaen-7-yl]ethan-1-ol] | > 1000
CC1(C)CCC(F)(CCC2c3ncccc3-c3cncn32)CC1 (single isomer, unassigned) [Compound 48b, 7-[2-(1-fluoro-4,4-dimethylcyclohexyl)ethyl]-4,6,9-triazatricyclo[6.4.0.0^[2,6]]dodeca-1(8),2,4,9,11-pentaene] | > 1000
OC(CC1c2nc(OC3CC3)ccc2-c2cncn21)C1CCCCC1 (mixture of isomers) [Compound 68b, 1-cyclohexyl-2-[10-cyclopropoxy-4,6,9-triazatricyclo[6.4.0.0^[2,6]]dodeca-1(8),2,4,9,11-pentaen-7-yl]ethan-1-ol] | > 1000
OC1CCC(F)(CCC2c3cccc(F)c3-c3cncn32)CC1 (single isomer, unassigned) [Compound 35d, 4-fluoro-4-(2-(9-fluoro-5H-imidazo[5,1-a]isoindol-5-yl)ethyl)cyclohexanol] | > 1000
OC1CCC(F)(CCC2c3ncccc3-c3cncn32)CC1 (mixture of isomers) [Compound 7a, 4-fluoro-4-(2-{4,6,9-triazatricyclo[6.4.0.0^[2,6]]dodeca-1(8),2,4,9,11-pentaen-7-yl}ethyl)cyclohexan-1-ol] | > 1000
CC(C)(C)C(=O)N1CCC(C(O)CC2c3ncccc3-c3cncn32)CC1 (single isomer, unassigned) [Compound 88a, 1-[4-[1-hydroxy-2-[4,6,9-triazatricyclo[6.4.0.0^[2,6]]dodeca-1(8),2,4,9,11-pentaen-7-yl]ethyl]piperidin-1-yl]-2,2-dimethylpropan-1-one] | > 1000
OC(CC1c2cnccc2-c2cncn21)C1CCCCC1 (centres unmarked) [Compound 9a, 1-Cyclohexyl-2-[4,6,10-triazatricyclo[6.4.0.0^[2,6]]dodeca-1(8),2,4,9,11-pentaen-7-yl]ethan-1-ol] | > 1000
CC1(C)CCC(F)(CCC2c3c(F)cccc3-c3cncn32)CC1 (single isomer, unassigned) [Compound 23a, 6-fluoro-5-(2-(1-fluoro-4,4-dimethylcyclohexyl)ethyl)-5H-imidazo[5,1-a]isoindole] | > 1000
OCC1CCC(C(O)CC2c3ncccc3-c3cncn32)CC1 (centres unmarked) [Compound 73a, 1-[4-(hydroxymethyl)cyclohexyl]-2-[4,6,9-triazatricyclo[6.4.0.0^[2,6]]dodeca-1(8),2,4,9,11-pentaen-7-yl]ethan-1-ol] | > 1000
FC1(CCC2c3c(Cl)cccc3-c3cncn32)CCC2(CC1)CC2 (single isomer, unassigned) [Compound 91a, 6-chloro-5-(2-[6-fluorospiro[2.5]octan-6-yl]ethyl)-5H-imidazo[4,3-a]isoindole] | > 1000
NC1CCC(F)(CCC2c3ccccc3-c3cncn32)CC1 (mixture of isomers) [Compound 104a, 4-fluoro-4-(2-[5H-imidazo[4,3-a]isoindol-5-yl]ethyl)cyclohexan-1-amine] | > 1000
OC(CC1c2nc(C3CC3)ccc2-c2cncn21)C1CCC(F)(F)CC1 (centres unmarked) [Compound 57a, 2-[10-cyclopropyl-4,6,9-triazatricyclo[6.4.0.0^[2,6]]dodeca-1(8),2,4,9,11-pentaen-7-yl]-1-(4,4-difluorocyclohexyl)ethan-1-ol] | > 1000

The next lines start with the values.

IC50 [nM] | SMILES
> 1000 | OC(CC1c2ncccc2-c2cncn21)C1CCC(F)(F)CC1 (single isomer, unassigned) [Compound 22b, 1-(4,4-difluorocyclohexyl)-2-[4,6,9-triazatricyclo[6.4.0.0^[2,6]]dodeca-1(8),2,4,9,11-pentaen-7-yl]ethan-1-ol]
100 to 1000 | O=C(C1CCC(F)(CCC2c3c(Cl)cccc3-c3cncn32)CC1)N1CCCCC1 (single isomer, unassigned) [Compound 115c]
> 1000 | FC(CC1c2ncccc2-c2cncn21)C1CCCCC1 (single isomer, unassigned) [Compound 97a, 7-[2-cyclohexyl-2-fluoroethyl]-4,6,9-triazatricyclo[6.4.0.0^[2,6]]dodeca-1(8),2,4,9,11-pentaene]
100 to 1000 | COc1ccc2c(n1)C(CC(N)C1CCC(F)(F)CC1)n1cncc1-2 (single isomer, unassigned) [Compound 120c, 1-(4,4-difluorocyclohexyl)-2-[10-methoxy-4,6,9-triazatricyclo[6.4.0.0^[2,6]]dodeca-1(8),2,4,9,11-pentaen-7-yl]ethan-1-amine]
100 to 1000 | OC1CCC(F)(CCC2c3c(Cl)cccc3-c3cncn32)CC1 (single isomer, unassigned) [Compound 71b, 4-[2-[6-chloro-5H-imidazo[4,3-a]isoindol-5-yl]ethyl]-4-fluorocyclohexan-1-ol]
< 100 | CC(C)(O)C1CCC(F)(CCC2c3c(F)cccc3-c3cncn32)CC1 (mixture of isomers) [Compound 86b, 2-[4-fluoro-4-(2-[6-fluoro-5H-imidazo[4,3-a]isoindol-5-yl]ethyl)cyclohexyl]propan-2-ol]
> 1000 | COc1ccc2c(n1)C(CC(O)C1CCC(C)(C)CC1)n1cncc1-2 (single isomer, unassigned) [Compound 40a, 1-(4,4-dimethylcyclohexyl)-2-[10-methoxy-4,6,9-triazatricyclo[6.4.0.0^[2,6]]dodeca-1(8),2,4,9,11-pentaen-7-yl]ethan-1-ol]
< 100 | NC(=O)CC1CCC(F)(CCC2c3ccccc3-c3cncn32)CC1 (single isomer, unassigned) [Compound 112d, 2-[4-fluoro-4-[2-[5H-imidazo[4,3-a]isoindol-5-yl]ethyl]cyclohexyl]acetamide]
> 1000 | NC(CC1c2ncccc2-c2cncn21)C1CCCCC1 (centres unmarked) [Compound 21a, 1-cyclohexyl-2-[4,6,9-triazatricyclo[6.4.0.0^[2,6]]dodeca-1(8),2,4,9,11-pentaen-7-yl]ethan-1-amine]
> 1000 | CC1(C)CCC(F)(CCC2c3ncccc3-c3cncn32)CC1 (single isomer, unassigned) [Compound 48a, 7-[2-(1-fluoro-4,4-dimethylcyclohexyl)ethyl]-4,6,9-triazatricyclo[6.4.0.0^[2,6]]dodeca-1(8),2,4,9,11-pentaene]
> 1000 | FC1(CCC2c3cnccc3-c3cncn32)CCCCC1 (single isomer, unassigned) [Compound 10a, 7-[2-(1-fluorocyclohexyl)ethyl]-4,6,10-triazatricyclo[6.4.0.0^[2,6]]dodeca-1(8),2,4,9,11-pentaene]
> 1000 | FC1(CCC2c3ncccc3-c3cncn32)CCOCC1 (single isomer, unassigned) [Compound 93a, 7-[2-(4-fluorooxan-4-yl)ethyl]-4,6,9-triazatricyclo[6.4.0.0^[2,6]]dodeca-1(8),2,4,9,11-pentaene]
100 to 1000 | COc1cccc2c1-c1cncn1C2CCC1(F)CCCCC1 (single isomer, unassigned) [Compound 42b, 5-(2-(1-fluorocyclohexyl)ethyl)-9-methoxy-5H-imidazo[5,1-a]isoindole]
> 1000 | NC(=O)C1CCC(F)(CCC2c3c(Cl)cccc3-c3cncn32)CC1 (single isomer, unassigned) [Compound 99d, 4-[2-[6-chloro-5H-imidazo[4,3-a]isoindol-5-yl]ethyl]-4-fluorocyclohexane-1-carboxamide]
100 to 1000 | FC1(CCC2c3c(Cl)cccc3-c3cncn32)CCCCC1 (single isomer, unassigned) [Compound 70b, 6-chloro-5-[2-(1-fluorocyclohexyl)ethyl]-5H-imidazo[4,3-a]isoindole]
< 100 | CN(C)C(=O)C1CCC(F)(CCC2c3c(F)cccc3-c3cncn32)CC1 (mixture of isomers) [Compound 111a, 4-fluoro-4-(2-[6-fluoro-5H-imidazo[4,3-a]isoindol-5-yl]ethyl)-N,N-dimethylcyclohexane-1-carboxamide]
100 to 1000 | FC1(F)CCC(CCC2c3ncccc3-c3cncn32)CC1 (centres unmarked) [Compound 49, 7-[2-(4,4-difluorocyclohexyl)ethyl]-4,6,9-triazatricyclo[6.4.0.0^[2,6]]dodeca-1(8),2,4,9,11-pentaene]
100 to 1000 | COc1ccc2c(n1)C(CCC1(F)CCCCC1)n1cncc1-2 (single isomer, unassigned) [Compound 32b, 7-[2-(1-fluorocyclohexyl)ethyl]-10-methoxy-4,6,9-triazatricyclo[6.4.0.0^[2,6]]dodeca-1(8),2,4,9,11-pentaene]
100 to 1000 | COc1ccc2c(n1)C(CC(O)C1CCC(C)(C)CC1)n1cncc1-2 (single isomer, unassigned) [Compound 40b, 1-(4,4-dimethylcyclohexyl)-2-[10-methoxy-4,6,9-triazatricyclo[6.4.0.0^[2,6]]dodeca-1(8),2,4,9,11-pentaen-7-yl]ethan-1-ol]
< 100 | NS(=O)(=O)C1CCC(F)(CCC2c3ccccc3-c3cncn32)CC1 (single isomer, unassigned) [Compound 121d, 4-fluoro-4-[2-[5H-imidazo[4,3-a]isoindol-5-yl]ethyl]cyclohexane-1-sulfonamide]
100 to 1000 | OC(CC1c2nc(F)ccc2-c2cncn21)C1CCC(F)(F)CC1 (single isomer, unassigned) [Compound 26b, 1-(4,4-difluorocyclohexyl)-2-[10-fluoro-4,6,9-triazatricyclo[6.4.0.0^[2,6]]dodeca-1(8),2,4,9,11-pentaen-7-yl]ethan-1-ol]
